Read-outs that look alike come from different tables or passages of the source.
Legend:
Type in all cases: cell-based, mouse
[1] = test system: volume-sensitive Cl- channel; test: Whole-cell patch-clamp of current activated by hyposmotic stimulation; conditions: primary cultured cerebral cortical neurons
Experimental: The cerebral cortex of fetuses removed from mice on day 16 of pregnancy was plated on cover-glass slips after digestion with papain. To prevent growth of glias and other proliferative cells, the cultures were supplemented with AraC (4 µM) 2 days after plating and a neuron-rich (>95%) culture system was prepared. A whole-cell patch-clamp technique was applied to primary cultures of cerebral cortical neurons (5-8 days after incubation). The intracellular and extracellular solutions used for the patch-clamp experiments were composed of the following. Intracellular solution (300mOsm, pH 7.4): 24 mM NMDG-C1, 100 mM NMDG-aspartate, 2 mM MgCl2, 5 mM Na2ATP, 0.3 mMNa3 GTP, 1 mM EGTA, 10 mM HEPES. […] Osmolality was adjusted by adding mannitol. Current activation was observed overtime by applying a potential of ±60 mV (500 ms duration, every 15 s) from a holding potential of -40 mV. To observe current kinetics, step pulses from -100 mV to +100 mV in 20 mV increments were applied (0.5 s duration) and current response was observed. The recordings were plotted in a current-voltage curve.

[2] = test system: cerebral cortical neurons; test: Volume regulation (recovery from swelling) under hypotonic conditions, soma cross-sectional area by two-photon microscopy; conditions: 80 µM; hyposmotic solution 200mOsm
Experimental: Primary cultured neurons on day 5-8 of culture were loaded with calcein-AM to visualize the cells, and X-Y cross sectional images were captured over time with a two-photon laser microscope. Cell size was assessed based on changes in cross sectional area of the soma. An area ratio at each time point was calculated and plotted on a graph, with the area at the start of experiment given as 1 (Figure 2B). The solution used for the experiment had the following composition: 90 mM NaCl, 2.5 mM KCl, 5 mM HEPES, 2 mM MgCl2, 2 mM CaCl2, and 10 mM glucose.

[3] = test system: EGFP-transfected primary cultured cerebral cortical neurons; test: Recovery from varicosities after removal of excitotoxic (NMDA) stimulation; conditions: 60 minutes after 20-minute 30 µM NMDA stimulation; concentration not given
Experimental: Primary cultured cerebral cortical neurons were transfected on day 3 of culture with a plasmid containing green fluorescent protein EGFP gene, using a […] phosphate method. […] Cells on day 2-6 of transfection were used for the experiment.
The cells were subjected to an excitotoxic stimulant by 20-minute exposure to low-magnesium HEPES buffer (composition: 142 mM NaCl, 2.5 mM KCl, 0.5 mM EGTA, 0.5 mM MgCl2, 0.33 mM NaH2PO4, 10 mM HEPES, 5.5 mM glucose, 0.03 mM glycine) containing NMDA (30 µM). After stimulation, the cells were washed three times with normal HEPES buffer (composition: 140 mM NaCl, 2.5 mM KCl, 2 mM CaCl2, 2 mM MgCl2, 10 mM HEPES, 5.5 mM glucose, 35 mM mannitol). The cells were then incubated at 37°C in the same buffer, and fixed with 4% paraformaldehyde at different time points (0, 15, 30, 60 min).
As in Example 4, EGFP-transfected primary cultured cerebral cortical neurons were used. According to the procedure of Example 4, the cells were subjected to excitotoxic stimulation, and incubated with normal HEPES buffer supplemented with various kinds of medicines. After 60 minutes, the cells were fixed with 4% paraformaldehyde, and the number of varicosity-bearing cells was counted with a fluorescent microscope as a percentage of the total number of counted neurons.

[4] = test system: primary cultured cerebral cortical neurons; test: Varicosity formation (neuronal swelling) during excitotoxic NMDA stimulation
Experimental: (§1) In order to access effects of volume-sensitive Cl- channel blocker on neuronal swelling or necrosis caused by hyperexcitation, primary cultures of cerebral cortical neurons isolated from fetuses removed from mice on day 16 of pregnancy were used. The primary cultured cerebral cortical neurons were cultured in a 5% CO2 incubator at 37°C, using Dulbecco's medium supplemented with 10% fetal bovine serum, streptomycin, and penicillin. To visualize dendrites, the cultured cerebral cortical neurons were transfected with EGFP gene on day 3 of culture, using a […] phosphate method. As an excitotoxic stimulant, Earle's Balanced Salt Solution (EBSS; commercially available as GIBCO#14155-063) was used that contained 30 µM N-methyl-D-aspartate (NMDA) and 30 µM glycine, supplemented with 2 mM CaCl2 and 0.5 mM MgCl2. To confirm activation of volume-sensitive Cl- channel, an experiment was conducted using a perforated-vesicle patch-clamp technique. After forming a gigaohm seal on the membrane of the varicosities exposed to excitotoxic stimulation, recording electrodes were raised to record currents from a single varicosity patch membrane. The intracellular and extracellular solutions used for the patch-clamp experiment were composed of the following. Extracellular solution: 124 mM N-methyl-D-glucamine (NMDG), 124 mM HCl, 20 mM TEA-Cl, 4 mM MgCl2, 0.33 mM NaH2PO4, 0.5 mM EGTA, 10 mM 2-[4-(2-hydroxyethyl)-1-piperazinyl] ethanesulfonic acid (HEPES), 2 mM 4-aminopyridine (4-AP), 5.5 mM glucose, 270mOsm, pH7.4. Intracellular solution: 145 mM KCl, 10 mM HEPES, 1 mM EGTA, 1 mM MgCl2, 0.3 mg/ml nystatin, 300mOsm, pH 7.4.
Neuronal swelling was assessed as a proportion of varicosity-forming cells in the total number of neurons. After 20-minute excitotoxic stimulation, the cells were fixed with 4% paraformaldehyde, and the number of cells in each cell group was counted with a fluorescent microscope.
Figure 7A is micrographs showing excitotoxic swelling of neurons induced by glutamate receptor agonist (30 µM NMDA). Primary cultured cerebral cortical neurons were visualized through EGFP expression. […] Figure 7B represents inhibitory action of Cl- channel blocker on varicosity formation. In the Figure, asterisk indicates a level of significant difference (p<0.05) from data on NMDA (before application of blocker).

[5] = test system: volume-sensitive Cl- channel; test: Perforated-vesicle patch-clamp of single-channel currents on the varicosity membrane
Experimental: In order to access effects of volume-sensitive Cl- channel blocker on neuronal swelling or necrosis caused by hyperexcitation, primary cultures of cerebral cortical neurons isolated from fetuses removed from mice on day 16 of pregnancy were used. The primary cultured cerebral cortical neurons were cultured in a 5% CO2 incubator at 37°C, using Dulbecco's medium supplemented with 10% fetal bovine serum, streptomycin, and penicillin. To visualize dendrites, the cultured cerebral cortical neurons were transfected with EGFP gene on day 3 of culture, using a […] phosphate method. As an excitotoxic stimulant, Earle's Balanced Salt Solution (EBSS; commercially available as GIBCO#14155-063) was used that contained 30 µM N-methyl-D-aspartate (NMDA) and 30 µM glycine, supplemented with 2 mM CaCl2 and 0.5 mM MgCl2. To confirm activation of volume-sensitive Cl- channel, an experiment was conducted using a perforated-vesicle patch-clamp technique. […]
After forming a gigaohm seal on the membrane of varicosities formed by excitotoxic stimulation (Figure 8A), the recording electrodes were lifted up to excise a single varicosity, with which recordings of volume-sensitive Cl- currents were made (Figure 8B). […] These properties of the recorded currents coincided with those of the volume-sensitive Cl- channel.

[6] = test system: primary cultured cerebral cortical neurons; test: Necrotic neuronal cell death by PI staining after NMDA exposure
Experimental: as §1
(§2) Necrotic neuronal cell death was assessed by PI staining in which the nuclei are stained with a propidium iodide (PI) dye that enters the cells through damaged portions of the plasma membrane, or by measuring the level of extracellular lactate dehydrogenase (LDH) released from dead cells.

[7] = test system: primary cultured cerebral cortical neurons; test: Necrotic neuronal cell death by LDH release after NMDA exposure
Experimental: as §1, §2

[8] = 40 µM co-applied with NMDA for 3 hours
[9] = 100 µM during 20-minute 30 µM NMDA stimulation
[10] = 100 µM co-applied with NMDA for 3 hours

Compound: O=C(O)c1cc([N+](=O)[O-])ccc1NCCCc1ccccc1 [NPPB]
- inhibition of current activated by hyposmotic stimulation ([1]; 80 µM): inhibited
- volume regulation [2]: inhibited
- Recovery from varicosities [3]: significantly inhibited
- number of varicosity-forming neurons ([4]; 40 µM during 20-minute 30 µM NMDA stimulation): decreased significantly
- single-channel events observed on the varicosity ([5]; 80 µM, 3 minutes after application): blocked
- blocking effect after removal ([5]; 3 minutes after removal of 80 µM): reversible
- number of PI positive cells [6, 8]: decreased significantly
- level of LDH release [7, 8]: significantly inhibited

Compound: CN1CCc2cc3c(cc2[C@H]1[C@@H]1OC(=O)c2c1ccc1c2OCO1)OCO3 [bicuculline]
- number of varicosity-forming neurons [4]: no significant inhibiting effects
- number of PI positive cells [6]: no significant inhibiting effects
- level of LDH release [7]: No inhibiting effects

Compound: picrotoxin
- number of varicosity-forming neurons [4, 9]: no significant inhibiting effects
- number of PI positive cells [6, 10]: no significant inhibiting effects
- level of LDH release [7, 10]: No inhibiting effects

Compound: O=C(CCc1ccc(O)cc1)c1c(O)cc(O)cc1O [phloretin]
- inhibition of current activated by hyposmotic stimulation ([1]; 100 µM): inhibited
- Recovery from varicosities [3]: significantly inhibited
- number of varicosity-forming neurons [4, 9]: decreased significantly
- number of PI positive cells [6, 10]: decreased significantly
- level of LDH release [7, 10]: significantly inhibited

Compound: O=S(=O)(O)c1cc(N=C=S)ccc1C=Cc1ccc(N=C=S)cc1S(=O)(=O)O [DIDS]
- inhibition of current activated by hyposmotic stimulation ([1]; 400 µM): inhibited

From patent EP1818063A1, “MEDICINE FOR TREATMENT OF DISEASE CAUSED BY HYPERSTIMULATORY CYTOTOXICITY AND THERAPEUTIC METHOD” (Japan Science and Technology Agency, priority 2004, dated 2006)
